Experiment [1] deals with two-spotted spider mites. In words: Miticidal test on two-spotted spider mites (by dipping). The arrangement: scale not given here. It is filed as in vivo, Tetranychus urticae. The settings on record: dipping of soybean seedlings, active ingredient 500 ppm, 25° C., 13 days. As for the experimental part: Wettable powders were prepared in accordance with Formulation Example 2 and diluted with water to an active ingredient concentration of 500 ppm. Soybean seedlings which had been inoculated with imago two-spotted spider mites were dipped in the resulting solutions and dried in air. The treated seedlings were placed in a thermostatic chamber at 25° C. for 13 days, and the mite survivors were counted for calculation of the miticidal value by using Equation 2. The test was carried out by one series system.

The subject of experiment [2] is two-spotted spider mites. Briefly: Miticidal test on two-spotted spider mites (by soil drenching). The settings on record: active ingredient 100 ppm, 5 ml per 100 g soil, 25° C., 13 days. The arrangement: scale not given here. In kind it is in vivo, Tetranychus urticae. The method, then:
Wettable powders were prepared in accordance with Formulation Example 2 and diluted with water to an active ingredient concentration of 100 ppm. 100 g of the soil in cups with soybean seedlings which had been inoculated with imago two-spotted spider mites were drenched with 5 ml of the resulting solutions. The treated seedlings were placed in a […] chamber at 25° C. for 13 days, and the mite survivors were counted for calculation of the miticidal value by using Equation 2.

A further experiment deals with brown planthoppers. Briefly: Insecticidal test on brown planthoppers. The settings on record: active ingredient 500 ppm, germinating rice immersed, 4th-instar larvae, 25° C., 6 days. In kind it is in vivo, Nilaparvata lugens. As for the experimental part: Wettable powders were prepared in accordance with Formulation Example 2 and diluted with water to an active ingredient concentration of 500 ppm. Germinating rice was immersed in the resulting solutions and put in a plastic cup with a capacity of 60 ml. Ten 4th-instar larvae of brown planthoppers were released to the cup, and the cup was covered and placed in a thermostatic chamber at 25° C. for 6 days, and the survivors were counted for calculation of the insecticidal degree by using Equation 1. The test was carried out by one series system.

The subject of experiment [3] is southern root-knot nematodes. In words: Nemastatic test on southern root-knot nematodes. The settings on record: diluted solution 20 ppm mixed 1:1 with suspension of second stage larvae, 25° C., 5 days. It is filed as in vivo, Meloidogyne sp. As for the experimental part:
Compounds of the present invention (5 parts) and Tween 20 (tradename for polyoxyethylene sorbitan monolaurate) (1 part) as a spreader were dissolved n N,N-dimethylformamide (94 parts) to prepare 5% emulsifiable concentrates of the compounds of the present invention. Distilled water was added to the emulsifiable concentrates to prepare diluted solutions having a concentration of the compounds of the present invention of 20 ppm. 0.5 ml of the diluted solutions and 0.5 ml of water suspensions containing 100 second stage larvae of southern root-knot nematodes were mixed, and the mixture were placed in a thermostatic chamber at 25° C. for 5 days, and the survivors were counted for calculation of the nemastatic degree by using Equation 3. The test was carried out by two series system.

Molecules are shown by their SMILES.

Regarding `Cc1ccc(-n2nc(C(F)(F)F)nc2N)cc1[S+]([O-])CC(F)(F)F` (stereo not drawn) [Compound 125], the Miticidal value amounted to 100 in the experiment with two-spotted spider mites [1] and 99 in the experiment with two-spotted spider mites [2]. Moreover, in the experiment with brown planthoppers, the “Insecticidal degree (%)” value was 100%. In addition, the “Nemastatic degree (%)” value in experiment [3] is reported as 91%.

As to `Nc1nc(C(F)(F)F)nn1-c1ccc(Cl)c([S+]([O-])CC(F)(F)F)c1` (stereo not drawn) [Compound 127], the Miticidal value in the experiment with two-spotted spider mites [1] and in the experiment on two-spotted spider mites [2] was 100 each time. Further, the “Insecticidal degree (%)” value in the experiment with brown planthoppers turned out to be 100%. Also, the “Nemastatic degree (%)” value in experiment [3] is reported as 94%.

Take `CCc1nc(N)n(-c2cc([S+]([O-])CC(F)(F)F)c(C)cc2F)n1` (stereo not drawn) [Compound 50]: the Miticidal value in the experiment with two-spotted spider mites [1] and in the experiment with two-spotted spider mites [2] was 100 each time. For the same compound, in the experiment with brown planthoppers, the “Insecticidal degree (%)” value turned out to be 99%. The “Nemastatic degree (%)” value in experiment [3] stood at 98%.

For the compound `Cc1cc(F)c(-n2nc([S+]([O-])C(F)F)nc2N)cc1[S+]([O-])CC(F)(F)F` (stereo not drawn) [Compound 30], the Miticidal value in the experiment on two-spotted spider mites [1] and in the experiment on two-spotted spider mites [2] was 100 throughout. Besides, the “Nemastatic degree (%)” value in experiment [3] is recorded as 95%.

On to `Cc1cc(F)c(-n2nc(C(F)(F)F)nc2NN)cc1SCC(F)(F)F` [Compound 162], for which the Miticidal value came to 100 with two-spotted spider mites [1] and 95 in the experiment on two-spotted spider mites [2]. Further, the “Insecticidal degree (%)” value in the experiment with brown planthoppers came to 100%. In addition, the “Nemastatic degree (%)” value in experiment [3] is 100%.

As for `Cc1cc(F)c(-n2nc(C(F)(F)F)nc2N(C)C)cc1SCC(F)(F)F` [Compound 43], the Miticidal value with two-spotted spider mites [1] and with two-spotted spider mites [2] was 100 throughout. The “Insecticidal degree (%)” value in the experiment on brown planthoppers came to 100%. In addition, in experiment [3], the “Nemastatic degree (%)” value was 93%.

Take `Cc1cc(F)c(-n2nc(C(F)(F)F)nc2N)cc1[S+]([O-])CC(F)(F)F` (stereo not drawn) [Compound 2, [5-(5-amino-3-trifluoromethyl-1,2,4-triazolyl)-4-fluoro-2-methylphenyl]2,2,2-trifluoroethyl sulfoxide]: the Miticidal value with two-spotted spider mites [1] and in the experiment with two-spotted spider mites [2] was 100 each time. In addition, the “Insecticidal degree (%)” value in the experiment on brown planthoppers is listed as 100%. In addition, in experiment [3], the “Nemastatic degree (%)” value worked out at 100%.

`CNc1nc(SCC(F)(F)F)nn1-c1cc([S+]([O-])CC(F)(F)F)c(C)cc1F` (stereo not drawn) [Compound 161]: the Miticidal value in the experiment with two-spotted spider mites [1] and in the experiment with two-spotted spider mites [2] was 100 each time. Besides, the “Insecticidal degree (%)” value in the experiment with brown planthoppers is given as 100%. The “Nemastatic degree (%)” value in experiment [3] worked out at 98%.

`Cc1cc(F)c(-n2nc([S+]([O-])CC(F)(F)F)nc2N)cc1[S+]([O-])CC(F)(F)F` (stereo not drawn) [Compound 133]: the Miticidal value with two-spotted spider mites [1] and in the experiment on two-spotted spider mites [2] was 100 each time. Also, in the experiment with brown planthoppers, the “Insecticidal degree (%)” value is on record as 100%. Besides, the “Nemastatic degree (%)” value in experiment [3] is reported as 98%.

For `CNc1nc(C(F)(F)F)nn1-c1ccc(C)c([S+]([O-])CC(F)(F)F)c1` (stereo not drawn) [Compound 38], the Miticidal value with two-spotted spider mites [1] and in the experiment on two-spotted spider mites [2] was 100 each time. In addition, the “Insecticidal degree (%)” value in the experiment with brown planthoppers was found to be 100%. The “Nemastatic degree (%)” value in experiment [3] stood at 100%.

On to `Cc1cc(F)c(-n2nc(SCC(F)(F)F)nc2N)cc1[S+]([O-])CC(F)(F)F` (stereo not drawn) [Compound 131], for which the Miticidal value in the experiment on two-spotted spider mites [1] and in the experiment on two-spotted spider mites [2] was 100 throughout. In addition, the “Insecticidal degree (%)” value in the experiment on brown planthoppers is on record as 90%. Moreover, the “Nemastatic degree (%)” value in experiment [3] is listed as 93%.

In the case of `Cc1cc(F)c(-n2nc(C(F)(F)F)nc2N)cc1SCC(F)(F)F` [Compound 1, [5-(5-amino-3-trifluoromethyl-1,2,4-triazolyl)-4-fluoro-2-methylphenyl]2,2,2-trifluoroethyl sulfide], the Miticidal value in the experiment on two-spotted spider mites [1] was determined as 100; in the experiment with two-spotted spider mites [2], 99. In the experiment with brown planthoppers, the “Insecticidal degree (%)” value was 90%. Also, the “Nemastatic degree (%)” value in experiment [3] is 100%.

As to `Cc1cc(F)c(-n2nc(C#N)nc2N)cc1[S+]([O-])CC(F)(F)F` (stereo not drawn) [Compound 36], the Miticidal value with two-spotted spider mites [1] and in the experiment on two-spotted spider mites [2] was 100 throughout. Moreover, the “Nemastatic degree (%)” value in experiment [3] was 100%.

On to `CNc1nc(C(C)(C)C)nn1-c1cc(SCC(F)(F)F)c(C)cc1F` [Compound 114], for which the Miticidal value with two-spotted spider mites [1] and in the experiment on two-spotted spider mites [2] was 100 in each case. Further, the “Insecticidal degree (%)” value in the experiment with brown planthoppers was found to be 100%. Also, the “Nemastatic degree (%)” value in experiment [3] is on record as 100%.

Take `CC(=O)Nc1nc(C(F)(F)F)nn1-c1cc([S+]([O-])CC(F)(F)F)c(C)cc1F` (stereo not drawn) [Compound 76]: the Miticidal value in the experiment on two-spotted spider mites [1] and with two-spotted spider mites [2] was 100 each time. Also, the “Insecticidal degree (%)” value in the experiment with brown planthoppers was found to be 100%.

Consider `CC(=O)Nc1nc([S+]([O-])CC(F)(F)F)nn1-c1cc([S+]([O-])CC(F)(F)F)c(C)cc1F` (stereo not drawn) [Compound 157], for which the Miticidal value with two-spotted spider mites [1] and with two-spotted spider mites [2] was 100 in each case. The “Insecticidal degree (%)” value in the experiment with brown planthoppers is recorded as 100%.

On to `Nc1nc(C(F)(F)F)nn1-c1ccc(C(F)F)c([S+]([O-])CC(F)(F)F)c1` (stereo not drawn) [Compound 123], for which the Miticidal value with two-spotted spider mites [1] and in the experiment on two-spotted spider mites [2] was 100 each time. In addition, the “Nemastatic degree (%)” value in experiment [3] worked out at 98%.

Regarding `C#CCNc1nc(SC(F)(F)C(F)(F)F)nn1-c1cc([S+]([O-])CC(F)(F)F)c(C)cc1F` (racemic) [Compound 194], the Miticidal value with two-spotted spider mites [1] and with two-spotted spider mites [2] was 100 each time. Also, the “Insecticidal degree (%)” value in the experiment on brown planthoppers is recorded as 100%.

Turning to `Cc1cc(F)c(-n2nc(C(F)(F)F)nc2N(C)C(=O)C(F)(F)F)cc1[S+]([O-])CC(F)(F)F` (racemic) [Compound 212], the Miticidal value in the experiment on two-spotted spider mites [1] and in the experiment with two-spotted spider mites [2] was 100 throughout. Besides, the “Insecticidal degree (%)” value in the experiment on brown planthoppers amounted to 100%. In experiment [3], the “Nemastatic degree (%)” value was 100%.

In the case of `CNc1nc(C(C)(C)C)nn1-c1cc([S+]([O-])CC(F)(F)F)c(C)cc1F` (stereo not drawn) [Compound 115], the Miticidal value with two-spotted spider mites [1] and with two-spotted spider mites [2] was 100 each time. In addition, in the experiment with brown planthoppers, the “Insecticidal degree (%)” value came to 100%. In experiment [3], the “Nemastatic degree (%)” value is recorded as 92%.

For `C#CCNc1nc(C(F)(F)F)nn1-c1cc([S+]([O-])CC(F)(F)F)c(C)cc1F` (stereo not drawn) [Compound 66], the Miticidal value with two-spotted spider mites [1] and in the experiment with two-spotted spider mites [2] was 100 in each case. Also, the “Insecticidal degree (%)” value in the experiment on brown planthoppers was found to be 100%. In addition, the “Nemastatic degree (%)” value in experiment [3] was 94%.

Consider `Cc1cc(F)c(-n2nc(C#N)nc2N)cc1SCC(F)(F)F` [Compound 35], for which the Miticidal value with two-spotted spider mites [1] is on record as 100; in the experiment on two-spotted spider mites [2] it was 93. For the same compound, in experiment [3], the “Nemastatic degree (%)” value was determined as 100%.

Consider `Cc1cc(F)c(-n2nc(C(F)(F)F)nc2N(C)N)cc1[S+]([O-])CC(F)(F)F` (stereo not drawn) [Compound 171], for which the Miticidal value in the experiment with two-spotted spider mites [1] and in the experiment on two-spotted spider mites [2] was 100 each time. For the same compound, the “Insecticidal degree (%)” value in the experiment with brown planthoppers is 100%. The “Nemastatic degree (%)” value in experiment [3] amounted to 100%.

On to `Cc1cc(F)c(-n2nc(C(C)(C)C)nc2N)cc1SCC(F)(F)F` [Compound 144], for which the Miticidal value in the experiment with two-spotted spider mites [1] and in the experiment with two-spotted spider mites [2] was 100 throughout. In addition, the “Insecticidal degree (%)” value in the experiment on brown planthoppers worked out at 90%. In experiment [3], the “Nemastatic degree (%)” value came out at 97%.

For the compound `Cc1cc(F)c(-n2nc(C(F)(F)F)nc2NC(=O)C(F)(F)F)cc1[S+]([O-])CC(F)(F)F` (stereo not drawn) [Compound 6, [5-(5-trifluoroacetylamino-3-trifluoromethyl-1,2,4-triazolyl)-4-fluoro-2-methylphenyl]2,2,2-trifluoroethyl sulfoxide], the Miticidal value with two-spotted spider mites [1] and in the experiment with two-spotted spider mites [2] was 100 in each case. In the experiment on brown planthoppers, the “Insecticidal degree (%)” value is given as 100%. Further, the “Nemastatic degree (%)” value in experiment [3] was 100%.

For `Cc1cc(F)c(-n2nc(C(F)(F)F)nc2NC(=O)NC(C)C)cc1[S+]([O-])CC(F)(F)F` (racemic) [Compound 202], the Miticidal value in the experiment on two-spotted spider mites [1] and with two-spotted spider mites [2] was 100 throughout. The “Insecticidal degree (%)” value with brown planthoppers stood at 100%.

For the compound `Cc1cc(F)c(-n2nc(C(F)(F)F)nc2NC(=O)CCl)cc1[S+]([O-])CC(F)(F)F` (racemic) [Compound 190], the Miticidal value in the experiment on two-spotted spider mites [1] and in the experiment with two-spotted spider mites [2] was 100 throughout. Besides, the “Insecticidal degree (%)” value in the experiment with brown planthoppers is reported as 100%.

On to `Cc1cc(F)c(-n2nc(C(F)(F)F)nc2NC(=O)C(F)(F)F)cc1SCC(F)(F)F` [Compound 5, [5-(5-trifluoroacetylamino-3-trifluoromethyl-1,2,4-triazolyl)-4-fluoro-2-methylphenyl]2,2,2-trifluoroethyl sulfide], for which the Miticidal value in the experiment with two-spotted spider mites [1] and in the experiment on two-spotted spider mites [2] was 100 throughout. In the experiment with brown planthoppers, the “Insecticidal degree (%)” value is recorded as 100%.

Values taken from patent publication US7872036B2, “3-triazolylphenyl sulfide derivative and insecticide, miticide and nematicide containing it as an active ingredient” (Kumiai Chemical Industry Co., Ltd., priority 2004, dated 2011).
